We go through 16 compounds from patent US20260217708A1, “FUSED BENZAZEPINE DERIVATIVES FOR USE IN THE TREATMENT OF CANCER AND EPILEPSY” (UCB BIOPHARMA SRL, priority 2023, published 2026).

Test [1] concerns the target T1, system Xc^− (Homo sapiens, UniProt Q9UPY5).
T1 sequence (Q9UPY5 1-501): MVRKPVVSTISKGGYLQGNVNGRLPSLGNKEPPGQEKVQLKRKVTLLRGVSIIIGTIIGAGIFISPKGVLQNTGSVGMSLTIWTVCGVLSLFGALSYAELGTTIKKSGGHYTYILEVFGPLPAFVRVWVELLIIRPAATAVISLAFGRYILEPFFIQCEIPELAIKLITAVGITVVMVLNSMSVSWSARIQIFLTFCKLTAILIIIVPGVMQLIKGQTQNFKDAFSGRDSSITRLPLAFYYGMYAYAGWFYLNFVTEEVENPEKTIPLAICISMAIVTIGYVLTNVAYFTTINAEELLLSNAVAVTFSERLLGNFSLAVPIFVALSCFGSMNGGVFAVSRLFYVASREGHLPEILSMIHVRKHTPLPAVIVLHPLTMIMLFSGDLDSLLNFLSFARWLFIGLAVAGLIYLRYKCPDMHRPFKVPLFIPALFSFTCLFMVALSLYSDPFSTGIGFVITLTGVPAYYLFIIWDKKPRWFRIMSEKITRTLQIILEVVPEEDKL
T1 sequence (P08195 1-529 partner): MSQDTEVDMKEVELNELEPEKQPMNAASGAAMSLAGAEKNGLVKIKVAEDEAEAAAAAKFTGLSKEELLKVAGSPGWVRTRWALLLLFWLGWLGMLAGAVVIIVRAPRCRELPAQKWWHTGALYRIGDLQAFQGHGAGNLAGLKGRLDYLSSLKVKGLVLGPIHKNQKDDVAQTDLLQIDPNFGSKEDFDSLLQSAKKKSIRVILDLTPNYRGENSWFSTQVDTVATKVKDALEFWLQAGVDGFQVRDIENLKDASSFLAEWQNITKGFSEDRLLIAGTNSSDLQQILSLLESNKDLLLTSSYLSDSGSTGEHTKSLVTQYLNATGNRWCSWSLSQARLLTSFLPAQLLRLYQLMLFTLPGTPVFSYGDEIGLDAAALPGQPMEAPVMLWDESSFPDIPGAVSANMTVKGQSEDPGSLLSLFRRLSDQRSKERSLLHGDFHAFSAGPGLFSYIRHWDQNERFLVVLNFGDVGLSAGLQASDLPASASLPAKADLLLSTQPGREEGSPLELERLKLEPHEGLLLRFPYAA
As to the kind of experiment: Cystine-induced glutamate release assay. More on the design: endogenous in cells; host or cells: H4 cells. The settings on record: H4 cells, sodium-free HEPES buffer, 50 μM L-Cystine, 2 hours, Amplex Red glutamate readout; read-out: pIC50 Cystine-induced glutamate release assay (converted). It is filed as cell-based. The source says: (§1) The effect of compounds of Formula (I) on the system Xc^− functionality was examined in two independent cell assays: (i) measurement of cystine-induced glutamate release; and (ii) measurement of [^14C]L-Cystine uptake.
(§2) As described above, System Xc^−, also known as the cystine/glutamate antiporter, is an amino acid transporter that mediates the extrusion of intracellular L-glutamate outside the cell and the uptake of extracellular L-cystine into the cell.
(§3) By measuring respectively, the concentration of glutamate released outside the cell and the L-cystine uptaken in the cell, with increasing concentrations of compounds of formula (I) according to the present invention, the efficacy of said compounds to inhibit the System Xc^− function can be evaluated.
(§4) The efficacy of the compounds to inhibit system Xc^− is represented by measuring the IC50 which corresponds to the concentration of compound necessary to inhibit 50% of the signals from the two control groups; DMSO 1% and Erastin 50 μM in the respective assays. pIC50 values correspond to −log of the IC50 in Molar.
Measurement of cystine-induced glutamate release indicates levels of glutamate (outside of the cell) that are dependent on system Xc^− antiporter function. Upon the addition of L-Cystine to H4 cells, intracellular glutamate is counter-transported and exported in the supernatant.
In this assay, the medium is devoid of sodium to prevent the transport of glutamate by sodium-dependent excitatory amino acid transporters (EAATs). H4 cells were plated on 384-well culture plate at 1×10^4 cells/well in Dulbecco's Modified Eagle Medium (DMEM) with L-glutamine, penicillin/streptomycin and 10% fetal bovine serum (all from ThermoFisher Scientific) and incubated in a humidified CO2 incubator at 37° C. After 2 days, cells were washed 4 times with prewarmed sodium-free HEPES buffer (contents in mM: HEPES 10, KCl 5.4, CaCl2 2.5, MgCl2 1, KH2PO4 0.4, D-Glucose 5, Choline chloride 140), pH 7.4. Glutamate release was induced by addition of 50 μM of L-Cystine (Sigma-Aldrich), together with a test compound of Formula (I) at 1% final DMSO concentration. After 2 hours of incubation in the culture incubator, supernatants were transferred to a low-binding polypropylene 384-well plate to determine L-glutamate concentration using Amplex™ Red Glutamic Acid Assay Kit (ThermoFisher Scientific). Briefly, 10 μL of Amplex™ Red working solution was added to 10 μL of the supernatant, then the mixture was incubated for 30 min at 37° C. Fluorescence intensity was measured by EnVision microplate reader (PerkinElmer).

Test [2] addresses T1, system Xc^−. Briefly: [^14C]L-Cystine uptake assay. The class given is cell-based. More on the design: endogenous in cells; host or cells: H4 cells. Conditions: H4 cells, sodium-free HEPES buffer, 0.5 μM L-[14C]Cystine and 4.5 μM L-Cystine, 1 hour at 37° C.; read-out: pIC50 [^14C] L-Cystine uptake assay (converted).
From the text: as §1, §2, §3, §4
In this assay, the medium is devoid of sodium to prevent the transport of glutamate by sodium-dependent excitatory amino acid transporters (EAATs). H4 cells were plated on a 96-well CytoStar-T scintillating microplate (PerkinElmer) at 5×10^4 cells/well in the medium described above. After 1 day, cells were washed one time with the sodium-free HEPES buffer and preincubated with test compounds of Formula (I) (1% final DMSO) for 15 min. Uptake was initiated by adding 0.5 μM L-[1,2, 1′,2′-^14C]Cystine (0.02 mCi/mL, PerkinElmer, Waltham, US) and 4.5 μM L-Cystine (Sigma-Aldrich). After 1 hour at 37° C., plates were counted in a MicroBeta^2 microplate counter (PerkinElmer).

Regarding `COc1ccc(NC(=O)CN2C(=O)C(C)c3ncccc3-c3c2cc(C)nc3F)cc1F` (centres unmarked) [#131, 2-(3-fluoro-5,10-dimethyl-9-oxo-4,8,12-triazatricyclo[9.4.0.0^2.7]pentadeca-1(11),2(7),3,5,12,14-hexaen-8-yl)-N-(3-fluoro-4-methoxy-phenyl)acetamide], the IC50 is 39.8 to 100 nM at system Xc^− [1] and 15.8 to 39.8 nM at system Xc^− [2].
With `Cc1cc2c(c(C(F)F)n1)-c1cccnc1C(C)C(=O)N2CC(=O)Nc1ccc(C(F)F)cc1` (single isomer, unassigned) [#301, 2-[3-(difluoromethyl)-5,10-dimethyl-9-oxo-4,8,12-triazatricyclo[9.4.0.0^2,7]pentadeca-1(11),2(7),3,5,12,14-hexaen-8-yl]-N-[4-(difluoromethyl)phenyl]acetamide], the IC50 at system Xc^− [1] and at system Xc^− [2] was 39.8 to 100 nM each time.
As for `Cc1cc2c(c(F)n1)-c1cc(F)cnc1C(C)C(=O)N2CC(=O)Nc1ccc(C(F)F)cc1` (single isomer, unassigned) [#261, N-[4-(difluoromethyl)phenyl]-2-[3,14-difluoro-5,10-dimethyl-9-oxo-4,8,12-triazatricyclo[9.4.0.0^2,7]pentadeca-1(11),2(7),3,5,12,14-hexaen-8-yl]acetamide], the IC50 at system Xc^− [1] and on system Xc^− [2] was < 15.8 nM throughout.
For `Cc1cc2c(c(F)n1)-c1cccnc1[C@@H](C)C(=O)N2CC(=O)Nc1ccc(C(F)(F)F)cc1` (single isomer, unassigned) [#192], the IC50 on system Xc^− [1] and on system Xc^− [2] was < 15.8 nM throughout.
Regarding `Cc1cc2c(c(=O)n1C)-c1cccnc1[C@@H](C)C(=O)N2CC(=O)Nc1ccc(C(F)(F)F)cc1` (single isomer, unassigned) [#178, Enantiomer (10R) or (10S) of N-[4-(trifluoromethyl)phenyl]-2-[4,5,10-trimethyl-3,9-dioxo-4,8,12-triazatricyclo[9.4.0.0^2,7]pentadeca-1(15),2(7),5,11,13-pentaen-8-yl]acetamide], the IC50 at system Xc^− [1] and on system Xc^− [2] was < 15.8 nM each time.
Consider `O=C(CN1C(=O)Cc2ncccc2-c2cnc(Cl)cc21)Nc1ccc(C(F)(F)F)cc1` [#25, 2-(5-chloro-9-oxo-4,8,12-triazatricyclo[9.4.0.0^2,7]pentadeca-1(11),2(7),3,5,12,14-hexaen-8-yl)-N-[4-(trifluoromethyl)phenyl]acetamide], for which the IC50 on system Xc^− [1] and on system Xc^− [2] was 100 to 501 nM each time.
`Cc1cc2c(c(C3CC3)n1)-c1ccccc1CC(=O)N2CC(=O)Nc1ccc(C(F)(F)F)cc1` [#73, 2-(1-cyclopropyl-3-methyl-6-oxo-7H-pyrido[4,3-d][3]benzazepin-5-yl)-N-[4-(trifluoromethyl)phenyl]acetamide]: the IC50 on system Xc^− [1] and at system Xc^− [2] was 100 to 501 nM throughout.
Take `CC1C(=O)N(CC(=O)Nc2ccc(C(F)F)cc2)c2cc(C#N)ccc2-c2cccnc21` (single isomer, unassigned) [#312, 2-[9-cyano-5-methyl-6-oxo-5H-pyrido[2,3-d][1]benzazepin-7-yl]-N-[4-(difluoromethyl)phenyl]acetamide]: the IC50 was < 15.8 nM at system Xc^− [1] and 39.8 to 100 nM at system Xc^− [2].
On to `CC1C(=O)N(CC(=O)Nc2ccc(Cl)c(F)c2)c2cc(Cl)cc(F)c2-c2nnccc21` (single isomer, unassigned) [#383, 2-[9-chloro-11-fluoro-5-methyl-6-oxo-5H-pyridazino[4,3-d][1]benzazepin-7-yl]-N-(4-chloro-3-fluoro-phenyl)acetamide], for which the values for the IC50 at system Xc^− [1] and at system Xc^− [2] were 39.8 to 100 nM and 15.8 to 39.8 nM, respectively.
As to `Cc1cc2c(c(F)n1)-c1cccnc1[C@@H](C)C(=O)N2CC(=O)Nc1ccc2cnc(F)cc2c1` (single isomer, unassigned) [#239], the IC50 at system Xc^− [1] and on system Xc^− [2] was 15.8 to 39.8 nM each time.
`COc1cc2c(c(F)n1)-c1cccnc1C(C)C(=O)N2CC(=O)Nc1ccc(C(F)(F)F)cc1` (centres unmarked) [#182, 2-(3-fluoro-5-methoxy-10-methyl-9-oxo-4,8,12-triazatricyclo[9.4.0.0^2,7]pentadeca-1(11),2(7),3,5,12,14-hexaen-8-yl)-N-[4-(trifluoromethyl)phenyl]acetamide]: the IC50 at system Xc^− [1] and on system Xc^− [2] was 15.8 to 39.8 nM throughout.
On to `O=C(CN1C(=O)Cc2cccnc2-c2cnc(Cl)cc21)Nc1ccc(C(F)(F)F)cc1` [#7, 2-(13-chloro-9-oxo-3,10,14-triazatricyclo[9.4.0.0^2,7]pentadeca-1(11),2(7),3,5,12,14-hexaen-10-yl)-N-[4-(trifluoromethyl)phenyl]acetamide], for which the results for the IC50 on system Xc^− [1] and on system Xc^− [2] were 100 to 501 nM and 39.8 to 100 nM, respectively.
For the compound `CC1C(=O)N(CC(=O)Nc2ccc(Cl)c(F)c2)c2cc(N(C)CCN(C)C)nc(F)c2-c2cccnc21` (single isomer, unassigned) [#266, N-(4-chloro-3-fluoro-phenyl)-2-[5-[2-(dimethylamino)ethyl-methyl-amino]-3-fluoro-10-methyl-9-oxo-4,8,12-triazatricyclo[9.4.0.0^2,7]pentadeca-1(15),2,4,6,11,13-hexaen-8-yl]acetamide], the IC50 on system Xc^− [1] and on system Xc^− [2] was 15.8 to 39.8 nM each time.
For the compound `Cc1cc2c(c(C#N)n1)-c1cc(F)ccc1CC(=O)N2CC(=O)Nc1ccc(C(F)(F)F)cc1` [#127, 2-(1-cyano-10-fluoro-3-methyl-6-oxo-7H-pyrido[4,3-d][3]benzazepin-5-yl)-N-[4-(trifluoromethyl)phenyl]acetamide], the IC50 at system Xc^− [1] was 39.8 to 100 nM; at system Xc^− [2] it was < 15.8 nM.
On to `Cc1cc2c(c(=O)n1C)-c1sccc1C(C)C(=O)N2CC(=O)Nc1ccc(C(F)F)cc1` (centres unmarked) [#361, N-[4-(difluoromethyl)phenyl]-2-(7,12,13-trimethyl-8,14-dioxo-3-thia-9,13-diazatricyclo[8.4.0.0^2,6]tetradeca-1(10),2(6),4,11-tetraen-9-yl)acetamide], for which the IC50 at system Xc^− [1] is 15.8 to 39.8 nM; on system Xc^− [2], < 15.8 nM.
In the case of `Cc1cc2c(c(F)n1)-c1ccc(Cl)cc1CC(=O)N2CC(=O)Nc1ccc(C(F)(F)F)cc1` [#85, 2-(9-chloro-1-fluoro-3-methyl-6-oxo-7H-pyrido[4,3-d][3]benzazepin-5-yl)-N-[4-(trifluoromethyl)phenyl]acetamide], the values for the IC50 at system Xc^− [1] and on system Xc^− [2] were 39.8 to 100 nM and 100 to 501 nM, respectively.
